Measurements taken from patent US20080188449A1, “Treatment of Conditions Caused By Calcium Abnormalities” (priority 2004, published 2008).

Legend:
[1] = tested on: HeLa cells; assay: [^3H]-triptolide competition binding in HeLa cells; settings: 1 or 10 μM competitor one hour before [^3H]-triptolide, HeLa cells
Protocol: To gain insight into triptolide's mechanism of action Applicants sought to determine its specific binding activity utilizing a system employing [^3H]-triptolide. In addition to competition with 1 μM or 10 μM unlabeled triptolide, Applicants also measured the binding affinities of triptolide analogs (FIG. 1A). These analogs have been previously described and differ structurally from triptolide in the hydrolysis of the 12,13 epoxide (2), and formation of the ketone at the C-14 hydroxyl (3) (FIG. 1A). […] The effective interaction of these analogs with a presumed triptolide binding entity led us to their use in subsequent experiments addressing the mode of triptolide's biological functions.
To address first the nature of triptolide binding within the cell, Applicants determined this interaction was reversible as [^3H]-triptolide labeling was out competed by subsequent addition of excess unlabeled triptolide (FIG. 2A). […] Although 25% of the total cellular counts (i.e., representing bound triptolide) were found in the cytosolic fraction, it is uncertain whether this is specific binding or simply that free triptolide had dissociated from its binding protein due to experimental manipulation during fractionation. Since the data thus far had only shown binding within whole cells, Applicants next determined if this triptolide binding protein could be further characterized and/or enriched by its association with chromatographic reagents. HeLa cells were once again labeled with [^3H]-triptolide and total cell lysates were then passed over the anion exchange resin DEAE. Batch elutions with increasing NaCl concentrations were used to disassociate interactions of variable charge. […] Importantly, Applicants also observed that [^3H]-triptolide would only bind to intact cells in culture but would not bind to any component of a total cellular lysate as assessed by interaction with the DEAE resin. Negative results for a triptolide binding interaction were also observed with DNA-cellulose and the cation exchange resin SPFF (sulphopropyl).
Labeling studies were performed by the addition of approximately 30 nM [^3H]-triptolide directly into the culture media for one hour at 37° C. For cold competition studies, 1 μM triptolide was incubated with the cells for one hour before or after the addition of [^3H]-triptolide. Triptolide analog studies followed a similar protocol where concentrations used for competition were either 1 or 10 μM added before [^3H]-triptolide. Medium was removed and cells were washed 3× in cold PBS. Total cell lysates were prepared (150 mM NaCl, 50 mM Tris-HCl pH 7.4, 1 mM EDTA, 1% Triton X-100, and Complete protease inhibitors (Roche)) and protein was quantitated before measuring the [^3H]-triptolide binding activity via liquid scintillation.

[2] = tested on: NFκB transactivation; assay: κB-luciferase reporter assay (TNF-α induced); assay type: cell-based; settings: 10 nM triptolide+TNF-α, after 24 hours
[3] = target: T1, polycystin-2 (Mus musculus, UniProt O35245); assay: Fluo-4 calcium imaging in murine kidney epithelial cells; assay type: cell-based; settings: 100 nM perfused, Pkd1^−/− cells
T1 construct: murine cell lines were derived from knockout and transgenic mice as previously reported; endogenous in cells; host or cells: Murine kidney proximal tubule epithelial cells, Pkd1-/- (MN24)
T1 sequence (O35245 1-966): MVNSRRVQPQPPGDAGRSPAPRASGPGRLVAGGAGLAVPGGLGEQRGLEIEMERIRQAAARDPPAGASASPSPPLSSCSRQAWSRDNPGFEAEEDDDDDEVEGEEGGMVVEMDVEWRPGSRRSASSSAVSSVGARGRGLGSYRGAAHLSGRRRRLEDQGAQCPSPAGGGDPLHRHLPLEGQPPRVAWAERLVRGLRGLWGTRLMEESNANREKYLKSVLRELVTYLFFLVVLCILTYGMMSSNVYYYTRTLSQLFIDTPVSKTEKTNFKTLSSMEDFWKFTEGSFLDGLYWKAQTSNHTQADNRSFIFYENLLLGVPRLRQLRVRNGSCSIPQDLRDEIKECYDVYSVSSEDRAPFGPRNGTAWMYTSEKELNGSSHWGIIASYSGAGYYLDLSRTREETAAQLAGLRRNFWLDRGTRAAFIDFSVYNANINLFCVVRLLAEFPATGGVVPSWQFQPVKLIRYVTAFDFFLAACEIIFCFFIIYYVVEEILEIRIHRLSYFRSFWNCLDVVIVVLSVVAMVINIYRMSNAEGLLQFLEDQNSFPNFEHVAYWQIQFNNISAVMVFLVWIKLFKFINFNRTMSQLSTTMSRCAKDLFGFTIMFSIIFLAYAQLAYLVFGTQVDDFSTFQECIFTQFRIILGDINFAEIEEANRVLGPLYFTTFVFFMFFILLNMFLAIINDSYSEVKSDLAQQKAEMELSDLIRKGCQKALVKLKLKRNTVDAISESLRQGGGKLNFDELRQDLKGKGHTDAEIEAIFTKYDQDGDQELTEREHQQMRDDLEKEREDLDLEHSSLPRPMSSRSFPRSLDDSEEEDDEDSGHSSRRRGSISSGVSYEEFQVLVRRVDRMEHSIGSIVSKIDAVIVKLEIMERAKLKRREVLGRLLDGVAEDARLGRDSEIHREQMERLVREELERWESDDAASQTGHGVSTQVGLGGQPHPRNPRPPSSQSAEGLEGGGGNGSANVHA
Excerpt: Murine kidney epithelial cell lines with differing polycystin-1 or polycystin-2 expression were used to establish a cellular based mechanism for polycystin-2 mediated calcium release in response to triptolide. Because the biochemical purification analysis identified polycystin-2 as a putative triptolide binding protein, Applicants assessed whether the calcium release was dependent upon expression of polycystin-1. Epithelial cells derived from the proximal nephric tubules of Pkd1^−/− mice were first examined to determine if calcium release was observed when 100 nM of triptolide was perfused through the imaging chamber. […] To strengthen the evidence that polycystin-2 was necessary for calcium release elicited by triptolide addition, it was reconstituted by stable expression of Pkd2 into the background of Pkd2^−/− cells, which were assessed for sensitivity to triptolide.
Cells were plated on coverslips and loaded with Fluo-4 (Molecular Probes) diluted in DMSO/pluronic for 30 minutes prior to imaging. Cells were perfused with a calcium imaging buffer (HEPES, NaCl, KCl, MgSO4 and CaCl2)±100 nM triptolide. All cell traces are indicative of individual cellular fluorescence and calcium release. Data is presented as change of fluorescence over baseline control (no triptolide addition).

CC(C)[C@]12O[C@H]1[C@@H]1O[C@]13[C@]1(O[C@H]1C[C@H]1C4=C(CC[C@@]13C)C(=O)OC4)[C@@H]2O [triptolide, Triptolide]
displacement of [^3H]-triptolide binding [1]: significantly competed
luciferase activity induction [2]: > 20 fold
calcium release [3]: clear rise in intracellular calcium levels
